These results are taken from US20060183901A1, “Crystalline form of an indazole-carboxamide compound” (THERAVANCE, INC., priority 2005, published 2006).

As a reminder, the inhibition is the relative decrease from the control value, in per cent.

For data set [1], the target named is T1, hERG cardiac potassium channel (Homo sapiens, UniProt Q12809).
T1 construct: host or cells: CHO-K1
Briefly: In vitro voltage clamp assay of inhibition of potassium ion current in whole cells expressing hERG. Format: cell-based. The conditions noted are these: pH 7.4, 5 minutes exposure, CHO-K1 cells. How it is done: Assay 4: In Vitro Voltage Clamp Assay of Inhibition of Potassium Ion Current in Whole Cells Expressing the hERG Cardiac Potassium Channel
CHO-K1 cells stably transfected with hERG cDNA were obtained from Gail Robertson at the University of Wisconsin. Cells were held in cryogenic storage until needed. Cells were expanded and passaged in Dulbecco's Modified Eagles Medium/F 12 supplemented with 10% fetal bovine serum and 200 μg/mL geneticin. Cells were seeded onto poly-D-lysine (100 μg/mL) coated glass coverslips, in 35 mm^2 dishes (containing 2 mL medium) at a density that enabled isolated cells to be selected for whole cell voltage-clamp studies. The dishes were maintained in a humidified, 5% CO2 environment at 37° C.
Extracellular solution was prepared at least every 7 days and stored at 4° C. when not in use. […]
The coverslips on which the cells were seeded were transferred to a recording chamber and perfused continuously. […] Peak current amplitudes during the repolarization phase were determined using pClamp software. […]
Peak current amplitudes during the repolarization phase were determined using pCLAMP software. […] The normalized current means and standard errors for each condition were calculated and plotted versus the time course of the experiment. […]

Data set [2] has as its system Caco-2 cell monolayer. Briefly: Caco-2 permeation assay. The class given is in vitro ADME, human. The following applies: 100 μM, 37° C., 60 min. On the procedure: Assay 5: In Vitro Model of Oral Bioavailability: Caco-2 Permeation Assay
The Caco-2 permeation assay was performed to model the ability of test compounds to pass through the intestine and get into the blood stream after oral administration. The rate at which test compounds in solution permeate a cell monolayer designed to mimic the tight junction of human small intestinal monolayers was determined.
Caco-2 (colon, adenocarcinoma; human) cells were obtained from ATCC (American Type Culture Collection; Rockville, Md.). For the permeation study, cells were seeded at a density of 63,000 cells/cm^2 on pre-wetted transwells polycarbonate filters (Costar; Cambridge, Mass.). A cell monolayer was formed after 21 days in culture. Following cell culture in the transwell plate, the membrane containing the cell monolayer was detached from the transwell plate and inserted into the diffusion chamber (Costar; Cambridge, Mass.). The diffusion chamber was inserted into the heating block which was equipped with circulating external, thermostatically regulated 37° C. water for temperature control. […]
The permeation study was performed with test compound concentrations at 100 μM and with ^14C-mannitol to monitor the integrity of the monolayer. […] Samples were analyzed by HPLC or liquid scintillation counting for test compound and mannitol concentrations. The permeation coefficient (Kp) in cm/sec was calculated.
For orientation: Caco-2 cells form a polarised layer with tight junctions and transporters.

T1 sequence (Q12809 whole entry): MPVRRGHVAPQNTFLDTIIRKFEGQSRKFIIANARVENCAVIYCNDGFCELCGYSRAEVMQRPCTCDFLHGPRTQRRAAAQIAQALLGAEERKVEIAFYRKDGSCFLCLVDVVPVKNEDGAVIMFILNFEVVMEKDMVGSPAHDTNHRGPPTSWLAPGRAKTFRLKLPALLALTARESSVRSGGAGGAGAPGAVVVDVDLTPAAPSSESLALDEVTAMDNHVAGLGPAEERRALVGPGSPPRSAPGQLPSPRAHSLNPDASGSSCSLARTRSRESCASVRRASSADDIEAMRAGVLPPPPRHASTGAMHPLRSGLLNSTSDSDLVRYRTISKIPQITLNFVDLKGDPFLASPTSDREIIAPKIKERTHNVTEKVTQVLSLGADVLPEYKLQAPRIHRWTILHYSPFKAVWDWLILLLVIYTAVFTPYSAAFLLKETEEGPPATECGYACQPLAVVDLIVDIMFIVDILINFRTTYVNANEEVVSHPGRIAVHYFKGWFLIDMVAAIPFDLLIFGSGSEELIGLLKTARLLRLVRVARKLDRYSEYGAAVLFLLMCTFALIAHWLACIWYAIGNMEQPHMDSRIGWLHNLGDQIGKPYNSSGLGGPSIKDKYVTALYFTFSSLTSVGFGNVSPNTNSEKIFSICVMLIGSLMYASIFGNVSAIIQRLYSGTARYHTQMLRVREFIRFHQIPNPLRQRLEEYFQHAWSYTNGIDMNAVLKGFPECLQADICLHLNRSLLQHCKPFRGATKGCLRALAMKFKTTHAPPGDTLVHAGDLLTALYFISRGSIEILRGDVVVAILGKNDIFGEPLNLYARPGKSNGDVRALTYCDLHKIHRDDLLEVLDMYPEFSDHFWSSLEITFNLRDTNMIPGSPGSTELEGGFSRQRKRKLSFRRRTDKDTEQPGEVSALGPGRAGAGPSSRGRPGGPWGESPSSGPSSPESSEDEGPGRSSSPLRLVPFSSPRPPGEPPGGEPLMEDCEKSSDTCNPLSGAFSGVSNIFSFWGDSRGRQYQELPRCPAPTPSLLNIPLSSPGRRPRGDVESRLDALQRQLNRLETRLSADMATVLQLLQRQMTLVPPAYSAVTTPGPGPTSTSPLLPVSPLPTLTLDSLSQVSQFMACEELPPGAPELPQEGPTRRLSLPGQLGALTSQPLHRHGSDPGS

Regarding `CC(=O)N1CCN(CCN2C3CCC2CC(NC(=O)c2nn(C(C)C)c4ccccc24)C3)CC1` [compound of formula I, 1-isopropyl-1H-indazole-3-carboxylic acid {(1S,3R,5R)-8-[2-(4-acetylpiperazin-1-yl)ethyl]-8-azabicyclo[3.2.1]oct-3-yl}amide], the inhibition at 5 min, 3 µM in data set [1] was < 15%. In addition, the “permeation coefficient Kp” value in data set [2] is “greater than 20×10^−6 cm/sec”.
